Tests used:
Mcl-1 = Mcl-1 (Homo sapiens (Human), UniProt Q07820); experiment: TR-FRET binding assay, FITC-Bak peptide and MBP-tagged Mcl-1; details: read-out: Ki for Inhibition of Mcl-1 by TR-FRET assay
Description: Compounds are diluted in DMSO in a 16-point, semilog serial dilution scheme. […] The plate was mixed and incubated for 3 hours at room temperature. […] TR-FRET signal is plotted and IC50 and Ki values are calculated in the same manner as the fluorescence polarization anisotropy based competition assays.

[1] = test system: H929 human cancer cell lines; experiment: Cellular viability / proliferation (Cell TiterGlo, 72 h); format: cell-based; details: Homo sapiens, NCI-H929, 72 h, read-out: GI50 on cellular proliferation of H929 human cancer cell lines, H929 cells, 72 h, Cell TiterGlo, 10% FBS
Method in brief: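 H929 cells plated at 1,000/well in 10% FBS medium received a 2-fold serial compound dilution (top 50 μM, DMSO <1%) 24 h later. After 72 h, viability was read by CellTiter-Glo luminescence. IC50 came from a four-parameter fit.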

Mcl-1, sequence (Q07820 172-327): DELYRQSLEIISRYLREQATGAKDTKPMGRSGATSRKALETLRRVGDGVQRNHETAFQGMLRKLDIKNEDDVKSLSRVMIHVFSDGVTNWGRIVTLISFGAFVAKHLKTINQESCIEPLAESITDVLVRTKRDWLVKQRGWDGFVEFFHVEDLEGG

Cc1cc(OCCCc2c3n(c4c(-c5c(C)nn(C)c5C)c(Cl)ccc24)[C@H](C)CN(c2cn(C)c4ccc(-c5nc6ccccn6n5)cc24)C3=O)cc(C)c1Cl [Example 648, (R)-2-(5-([1,2,4]Triazolo[1,5-a]pyridin-2-yl)-1-methyl-1H-indol-3-yl)-7-chloro-10-(3-(4-chloro-3,5-dimethylphenoxy)propyl)-4-methyl-6-(1,3,5-trimethyl-1H-pyrazol-4-yl)-3,4-dihydropyrazino[1,2-a]indol-1(2H)-one]
Ki (Mcl-1): 0.23 nM
GI50 [1]: 310 nM

COc1ccc(N2C[C@@H](C)n3c(c(CCCOc4cc(C)c(Cl)c(C)c4)c4ccc(Cl)c(-c5c(C)nn(C)c5C)c43)C2=O)c2c1cc(C(=O)O)n2Cc1cccc(C)n1 [Example 593, (R)-7-(7-chloro-10-(3-(4-chloro-3,5-dimethylphenoxy)propyl)-4-methyl-1-oxo-6-(1,3,5-trimethyl-1H-pyrazol-4-yl)-3,4-dihydropyrazino[1,2-a]indol-2(1H)-yl)-4-methoxy-1-((6-methylpyridin-2-yl)methyl)-1H-indole-2-carboxylic acid]
Ki (Mcl-1): < 0.2 nM
GI50 [1]: < 200 nM

Cc1cc(OCCCc2c3n(c4c(-c5c(C)nn(C)c5C)c(Cl)ccc24)[C@H](C)CN(c2cn(CCN4CCN(C)CC4)c4ccc(-c5ncccn5)cc24)C3=O)cc(C)c1Cl [Example 568, (R)-7-Chloro-10-(3-(4-chloro-3,5-dimethylphenoxy)propyl)-4-methyl-2-(1-(2-(4-methylpiperazin-1-yl)ethyl)-5-(pyrimidin-2-yl)-1H-indol-3-yl)-6-(1,3,5-trimethyl-1H-pyrazol-4-yl)-3,4-dihydropyrazino[1,2-a]indol-1(2H)-one]
Ki (Mcl-1): 1.8 nM
GI50 [1]: 280 nM

COCCOc1cc(N2C[C@@H](C)n3c(c(CCCOc4cc(C)c(Cl)c(C)c4)c4ccc(Cl)c(-c5c(C)ncnc5C)c43)C2=O)c2c(c1)cc(C(=O)O)n2C [Example 539, (R)-7-(7-Chloro-10-(3-(4-chloro-3,5-dimethylphenoxy)propyl)-6-(4,6-dimethylpyrimidin-5-yl)-4-methyl-1-oxo-3,4-dihydropyrazino[1,2-a]indol-2(1H)-yl)-5-(2-methoxyethoxy)-1-methyl-1H-indole-2-carboxylic acid]
Ki (Mcl-1): < 0.2 nM
GI50 [1]: < 200 nM

Cc1cc(OCCCc2c3n(c4c(-c5c(C)nc(CN6CCN(C)C(=O)C6)nc5C)c(Cl)ccc24)[C@H](C)CN(c2cn(C)c4ccc(-c5ncn(C)n5)cc24)C3=O)cc(C)c1Cl [Example 663, (R)-7-chloro-10-(3-(4-chloro-3,5-dimethylphenoxy)propyl)-6-(4,6-dimethyl-2-((4-methyl-3-oxopiperazin-1-yl)methyl)pyrimidin-5-yl)-4-methyl-2-(1-methyl-5-(1-methyl-1H-1,2,4-triazol-3-yl)-1H-indol-3-yl)-3,4-dihydropyrazino[1,2-a]indol-1(2H)-one]
Ki (Mcl-1): 0.52 nM
GI50 [1]: < 200 nM

Cc1cc(OCCCc2c3n(c4c(-c5c(C)nn(C)c5C)c(Cl)ccc24)[C@H](C)CN(c2cc(CN4CCOCC4)cc4cc(C(=O)O)n(C)c24)C3=O)cc(C)c1Cl [Example 623, (R)-7-(7-chloro-10-(3-(4-chloro-3,5-dimethylphenoxy)propyl)-4-methyl-1-oxo-6-(1,3,5-trimethyl-1H-pyrazol-4-yl)-3,4-dihydropyrazino[1,2-a]indol-2(1H)-yl)-1-methyl-5-(morpholinomethyl)-1H-indole-2-carboxylic acid]
Ki (Mcl-1): < 0.2 nM
GI50 [1]: < 200 nM

Cc1cc(N2C[C@@H](C)n3c(c(CCCOc4cc(C)c(Cl)c(C)c4)c4ccc(Cl)c(-c5c(C)nn(C)c5C)c43)C2=O)c2c(c1)cc(C(=O)O)n2Cc1cccc(N2CCN(C)CC2)n1 [Example 516, (R)-7-(7-Chloro-10-(3-(4-chloro-3,5-dimethylphenoxy)propyl)-4-methyl-1-oxo-6-(1,3,5-trimethyl-1H-pyrazol-4-yl)-3,4-dihydropyrazino[1,2-a]indol-2(1H)-yl)-5-methyl-1-((6-(4-methylpiperazin-1-yl)pyridin-2-yl)methyl)-1H-indole-2-carboxylic acid]
Ki (Mcl-1): < 0.2 nM
GI50 [1]: 330 nM

Cc1cc(N2C[C@@H](C)n3c(c(CCCOc4cc(C)c(Cl)c(C)c4)c4ccc(Cl)c(-c5c(C)ncnc5C)c43)C2=O)c2c(c1)cc(C(=O)O)n2Cc1cccc(C)n1 [Example 576, (R)-7-(7-chloro-10-(3-(4-chloro-3,5-dimethylphenoxy)propyl)-6-(4,6-dimethylpyrimidin-5-yl)-4-methyl-1-oxo-3,4-dihydropyrazino[1,2-a]indol-2(1H)-yl)-5-methyl-1-((6-methylpyridin-2-yl)methyl)-1H-indole-2-carboxylic acid]
Ki (Mcl-1): < 0.2 nM
GI50 [1]: 350 nM

Cc1cc(OCCCc2c3n(c4c(-c5c(C)nn(C)c5C)c(Cl)ccc24)[C@H](C)CN(c2cc(NC(=O)CN(C)C)cc4c(C(=O)O)cn(C)c24)C3=O)cc(C)c1Cl [Example 542, (R)-7-(7-Chloro-10-(3-(4-chloro-3,5-dimethylphenoxy)propyl)-4-methyl-1-oxo-6-(1,3,5-trimethyl-1H-pyrazol-4-yl)-3,4-dihydropyrazino[1,2-a]indol-2(1H)-yl)-5-(2-(dimethylamino)acetamido)-1-methyl-1H-indole-3-carboxylic acid]
Ki (Mcl-1): 0.48 nM
GI50 [1]: 3300 nM

Cc1cc(OCCCc2c3n(c4c(-c5c(C)nn(C)c5C)c(Cl)ccc24)[C@H](C)CN(c2cn(CC(=O)N4CCCC4)c4ccc(-c5ncn(C)n5)cc24)C3=O)cc(C)c1Cl [Example 527, (R)-7-Chloro-10-(3-(4-chloro-3,5-dimethylphenoxy)propyl)-4-methyl-2-(5-(1-methyl-1H-1,2,4-triazol-3-yl)-1-(2-oxo-2-(pyrrolidin-1-yl)ethyl)-1H-indol-3-yl)-6-(1,3,5-trimethyl-1H-pyrazol-4-yl)-3,4-dihydropyrazino[1,2-a]indol-1(2H)-one]
Ki (Mcl-1): 0.36 nM
GI50 [1]: 260 nM

Cc1cc(OCCCc2c3n(c4c(-c5c(C)nn(C)c5C)c(Cl)ccc24)[C@H](C)CN(c2cn(C)c4ccc(C(=O)O)nc24)C3=O)cc(C)c1Cl [Example 489, (R)-3-(7-Chloro-10-(3-(4-chloro-3,5-dimethylphenoxy)propyl)-4-methyl-1-oxo-6-(1,3,5-trimethyl-1H-pyrazol-4-yl)-3,4-dihydropyrazino[1,2-a]indol-2(1H)-yl)-1-methyl-1H-pyrrolo[3,2-b]pyridine-5-carboxylic acid]
Ki (Mcl-1): < 0.2 nM
GI50 [1]: < 200 nM

Cc1cc(OCCCc2c3n(c4c(-c5c(C)cc(OCc6ccccn6)cc5C)c(Cl)ccc24)[C@H](C)CN(c2cn(C)c4ccc(C(=O)O)cc24)C3=O)cc(C)c1Cl [Example 497, (R)-3-(7-chloro-10-(3-(4-chloro-3,5-dimethylphenoxy)propyl)-6-(2,6-dimethyl-4-(pyridin-2-ylmethoxy)phenyl)-4-methyl-1-oxo-3,4-dihydropyrazino[1,2-a]indol-2(1H)-yl)-1-methyl-1H-indole-5-carboxylic acid]
Ki (Mcl-1): 1.3 nM
GI50 [1]: 1700 nM

Cc1cc(OCCCc2c3n(c4c(-c5c(C)nn(C)c5C)c(Cl)ccc24)[C@H](C)CN(c2cn(C)c4ccc(-n5ccnn5)nc24)C3=O)cc(C)c1Cl [Example 659, (R)-7-Chloro-10-(3-(4-chloro-3,5-dimethylphenoxy)propyl)-4-methyl-2-(1-methyl-5-(1H-1,2,3-triazol-1-yl)-1H-pyrrolo[3,2-b]pyridin-3-yl)-6-(1,3,5-trimethyl-1H-pyrazol-4-yl)-3,4-dihydropyrazino[1,2-a]indol-1(2H)-one]
Ki (Mcl-1): 0.96 nM
GI50 [1]: 930 nM

Source: US11596639B2, “Substituted indole Mcl-1 inhibitors” (Vanderbilt University, priority 2016, dated 2023)
